Values after ≈ are worked out from the molar mass of the structure shown. Where two headings read alike, the source gives them in different places.
Tested on: S. aureus clinical isolates
Assay: microbe, parasite or virus in culture
Format: cell-based
Settings: Staphylococcus aureus, read-out: MIC

## C[C@H]1COc2c(N3CCN(C)CC3)c(F)cc3c(=O)c(C(=O)O)cn1c23 [Levofloxacin]
ATCC 29213 / MSSA, S. aureus ATCC 29213, MSSA / VSSA, test date 2018-10-25 (three repeat lines)
  MIC: 0.25 µg/mL (≈ 0.692 µM)
ATCC 29213 / MSSA, S. aureus ATCC 29213, MSSA / VSSA, test date 2018-11-07
  MIC: 0.25 µg/mL (≈ 0.692 µM)
MRSA / NRS 3 / VISA, S. aureus IHMA 1308243, NRS3, MRSA / VISA
  MIC: 32 µg/mL (≈ 88.6 µM)
MRSA / NRS 4 / VISA, S. aureus IHMA 649380, NRS4, MRSA / VISA
  MIC: 16 µg/mL (≈ 44.3 µM)
MRSA / NRS 18 / VISA, S. aureus IHMA 649386, NRS18, MRSA / VISA
  MIC: 16 µg/mL (≈ 44.3 µM)
MRSA / NRS 19 / VISA, S. aureus IHMA 649387, NRS19, MRSA / VISA
  MIC: 32 µg/mL (≈ 88.6 µM)
MRSA / NRS 21 / VISA, S. aureus IHMA 649388, NRS21, MRSA / VISA
  MIC: 8 µg/mL (≈ 22.1 µM)
MRSA / NRS 22 / USA600 / VISA, S. aureus IHMA 649389, NRS22, MRSA / VISA, USA600
  MIC: 16 µg/mL (≈ 44.3 µM)
MRSA / NRS 23 / VISA, S. aureus IHMA 649390, NRS23, MRSA / VISA
  MIC: 16 µg/mL (≈ 44.3 µM)
MRSA / NRS 24 / VISA, S. aureus IHMA 649391, NRS24, MRSA / VISA
  MIC: 64 µg/mL (≈ 177 µM)
MRSA / NRS 26, S. aureus IHMA 649392, NRS26, MRSA / VSSA
  MIC: 8 µg/mL (≈ 22.1 µM)
MRSA / NRS 27 / VISA, S. aureus IHMA 1308248, NRS27, MRSA / VISA
  MIC: 32 µg/mL (≈ 88.6 µM)
MRSA / NRS 29 / VISA, S. aureus IHMA 1308250, NRS29, MRSA / VISA
  MIC: 16 µg/mL (≈ 44.3 µM)
MRSA / NRS 37 / VISA, S. aureus IHMA 1308251, NRS37, MRSA / VISA
  MIC: 32 µg/mL (≈ 88.6 µM)
MRSA / NRS 54, S. aureus IHMA 1308253, NRS54, MRSA / VSSA* (*Expected VAN intermediate, confirmed VAN susceptible twice), test date 2018-11-07
  MIC: 8 µg/mL (≈ 22.1 µM)
MRSA / NRS 56 / VISA, S. aureus IHMA 1308254, NRS56, MRSA / VISA
  MIC: 8 µg/mL (≈ 22.1 µM)
MRSA / USA100 / VRSA, S. aureus IHMA 672230, VRS1, MRSA / VRSA, USA100
  MIC: 32 µg/mL (≈ 88.6 µM)
MRSA / USA100 / VRSA, S. aureus IHMA 672231, VRS2, MRSA / VRSA, USA100
  MIC: 32 µg/mL (≈ 88.6 µM)
MRSA / USA100 / VRSA, S. aureus IHMA 672234, VRS4, MRSA / VRSA, USA100
  MIC: > 64 µg/mL
MRSA / USA100 / VRSA, S. aureus IHMA 672235, VRS5, MRSA / VRSA, USA100
  MIC: 64 µg/mL (≈ 177 µM)
MRSA / USA100 / VRSA, S. aureus IHMA 672237, VRS7, MRSA / VRSA, USA100
  MIC: 64 µg/mL (≈ 177 µM)
MRSA / USA100 / VRSA, S. aureus IHMA 672238, VRS8, MRSA / VRSA, USA100
  MIC: 16 µg/mL (≈ 44.3 µM)
MRSA / USA100 / VRSA, S. aureus IHMA 672239, VRS9, MRSA / VRSA, USA100
  MIC: 64 µg/mL (≈ 177 µM)
MRSA / USA100 / VRSA, S. aureus IHMA 1308256, VRS10, MRSA / VRSA, USA100
  MIC: > 64 µg/mL
MRSA / USA100 / VRSA, S. aureus IHMA 1308258, VRS11b, MRSA / VRSA, USA100
  MIC: > 64 µg/mL
MRSA / USA800 / VRSA, S. aureus IHMA 672233, VRS3b, MRSA / VRSA, USA800
  MIC: 16 µg/mL (≈ 44.3 µM)
MRSA, S. aureus IHMA 1569509, MRSA / VSSA
  MIC: 4 µg/mL (≈ 11.1 µM)
MRSA, S. aureus IHMA 1575268, MRSA / VSSA
  MIC: 32 µg/mL (≈ 88.6 µM)
MRSA, S. aureus IHMA 1575629, MRSA / VSSA
  MIC: 8 µg/mL (≈ 22.1 µM)
MRSA, S. aureus IHMA 1577820, MRSA / VSSA
  MIC: > 64 µg/mL
MRSA, S. aureus IHMA 1580300, MRSA / VSSA
  MIC: 16 µg/mL (≈ 44.3 µM)
MRSA, S. aureus IHMA 1580940, MRSA / VSSA
  MIC: 0.5 µg/mL (≈ 1.38 µM)
MRSA, S. aureus IHMA 1582100, MRSA / VSSA
  MIC: 32 µg/mL (≈ 88.6 µM)
MRSA, S. aureus IHMA 1583795, MRSA / VSSA
  MIC: 32 µg/mL (≈ 88.6 µM)
MRSA, S. aureus IHMA 1584223, MRSA / VSSA
  MIC: 8 µg/mL (≈ 22.1 µM)
MRSA, S. aureus IHMA 1585316, MRSA / VSSA
  MIC: 32 µg/mL (≈ 88.6 µM)
MRSA, S. aureus IHMA 1586780, MRSA / VSSA
  MIC: 16 µg/mL (≈ 44.3 µM)
MRSA, S. aureus IHMA 1587322, MRSA / VSSA
  MIC: 0.25 µg/mL (≈ 0.692 µM)
MRSA, S. aureus IHMA 1588127, MRSA / VSSA
  MIC: 16 µg/mL (≈ 44.3 µM)
MRSA, S. aureus IHMA 1591462, MRSA / VSSA
  MIC: 32 µg/mL (≈ 88.6 µM)
MRSA, S. aureus IHMA 1592755, MRSA / VSSA
  MIC: 16 µg/mL (≈ 44.3 µM)
MRSA, S. aureus IHMA 1592776, MRSA / VSSA
  MIC: 0.25 µg/mL (≈ 0.692 µM)
MRSA, S. aureus IHMA 1597106, MRSA / VSSA
  MIC: 16 µg/mL (≈ 44.3 µM)
MRSA, S. aureus IHMA 1602095, MRSA / VSSA
  MIC: 0.25 µg/mL (≈ 0.692 µM)
MRSA, S. aureus IHMA 1611170, MRSA / VSSA
  MIC: 0.25 µg/mL (≈ 0.692 µM)
MRSA, S. aureus IHMA 1611612, MRSA / VSSA
  MIC: 32 µg/mL (≈ 88.6 µM)
MRSA, S. aureus IHMA 1612228, MRSA / VSSA
  MIC: 8 µg/mL (≈ 22.1 µM)
MRSA, S. aureus IHMA 1620441, MRSA / VSSA
  MIC: 32 µg/mL (≈ 88.6 µM)
MRSA, S. aureus IHMA 1621638, MRSA / VSSA
  MIC: 0.25 µg/mL (≈ 0.692 µM)
MRSA, S. aureus IHMA 1622252, MRSA / VSSA
  MIC: 16 µg/mL (≈ 44.3 µM)
MRSA, S. aureus IHMA 1622527, MRSA / VSSA
  MIC: 0.25 µg/mL (≈ 0.692 µM)
MRSA, S. aureus IHMA 1666371, MRSA / VSSA
  MIC: > 64 µg/mL
MRSA, S. aureus IHMA 1695391, MRSA / VSSA
  MIC: > 64 µg/mL
MRSA, S. aureus IHMA 1703428, MRSA / VSSA
  MIC: 0.25 µg/mL (≈ 0.692 µM)
MRSA, S. aureus IHMA 1720350, MRSA / VSSA
  MIC: 0.25 µg/mL (≈ 0.692 µM)
MRSA, S. aureus IHMA 1732989, MRSA / VSSA
  MIC: 64 µg/mL (≈ 177 µM)
MRSA, S. aureus IHMA 1742231, MRSA / VSSA
  MIC: > 64 µg/mL
MRSA, S. aureus IHMA 1766357, MRSA / VSSA
  MIC: 16 µg/mL (≈ 44.3 µM)
MSSA / NRS 12 / VISA, S. aureus IHMA 1308244, NRS12, MSSA / VISA
  MIC: 0.5 µg/mL (≈ 1.38 µM)
MSSA / NRS 13 / VISA, S. aureus IHMA 1308245, NRS13, MSSA / VISA
  MIC: 0.5 µg/mL (≈ 1.38 µM)
MSSA / NRS 14 / VISA, S. aureus IHMA 1308246, NRS14, MSSA / VISA
  MIC: 0.5 µg/mL (≈ 1.38 µM)
MSSA / NRS 17 / VISA, S. aureus IHMA 1308247, NRS17, MSSA / VISA
  MIC: 16 µg/mL (≈ 44.3 µM)
MSSA / NRS 28 / VISA, S. aureus IHMA 1308249, NRS28, MSSA / VISA
  MIC: 32 µg/mL (≈ 88.6 µM)
MSSA / NRS 52, S. aureus IHMA 1308252, NRS52, MSSA / VSSA* (*Expected VAN intermediate, confirmed VAN susceptible twice), test date 2018-11-07
  MIC: 0.25 µg/mL (≈ 0.692 µM)
MSSA / USA100 / VRSA, S. aureus IHMA 672236, VRS6, MSSA / VRSA, USA100
  MIC: 32 µg/mL (≈ 88.6 µM)
MSSA, S. aureus IHMA 1563826, MSSA / VSSA
  MIC: 0.25 µg/mL (≈ 0.692 µM)
MSSA, S. aureus IHMA 1565492, MSSA / VSSA
  MIC: 0.25 µg/mL (≈ 0.692 µM)
MSSA, S. aureus IHMA 1569499, MSSA / VSSA
  MIC: 0.25 µg/mL (≈ 0.692 µM)
MSSA, S. aureus IHMA 1569754, MSSA / VSSA
  MIC: 16 µg/mL (≈ 44.3 µM)
MSSA, S. aureus IHMA 1574202, MSSA / VSSA
  MIC: 0.25 µg/mL (≈ 0.692 µM)
MSSA, S. aureus IHMA 1575652, MSSA / VSSA
  MIC: 0.25 µg/mL (≈ 0.692 µM)
MSSA, S. aureus IHMA 1575779, MSSA / VSSA
  MIC: 0.25 µg/mL (≈ 0.692 µM)
MSSA, S. aureus IHMA 1576329, MSSA / VSSA
  MIC: 0.25 µg/mL (≈ 0.692 µM)
MSSA, S. aureus IHMA 1577800, MSSA / VSSA
  MIC: 0.25 µg/mL (≈ 0.692 µM)
MSSA, S. aureus IHMA 1578560, MSSA / VSSA
  MIC: 0.25 µg/mL (≈ 0.692 µM)
MSSA, S. aureus IHMA 1580233, MSSA / VSSA
  MIC: 0.25 µg/mL (≈ 0.692 µM)
MSSA, S. aureus IHMA 1580925, MSSA / VSSA
  MIC: 0.25 µg/mL (≈ 0.692 µM)
MSSA, S. aureus IHMA 1580955, MSSA / VSSA
  MIC: 0.25 µg/mL (≈ 0.692 µM)
MSSA, S. aureus IHMA 1582586, MSSA / VSSA
  MIC: 0.5 µg/mL (≈ 1.38 µM)
MSSA, S. aureus IHMA 1582691, MSSA / VSSA
  MIC: 0.25 µg/mL (≈ 0.692 µM)
MSSA, S. aureus IHMA 1584230, MSSA / VSSA
  MIC: 0.25 µg/mL (≈ 0.692 µM)
MSSA, S. aureus IHMA 1587279, MSSA / VSSA
  MIC: 0.25 µg/mL (≈ 0.692 µM)
MSSA, S. aureus IHMA 1591459, MSSA / VSSA
  MIC: 16 µg/mL (≈ 44.3 µM)
MSSA, S. aureus IHMA 1592749, MSSA / VSSA
  MIC: 0.25 µg/mL (≈ 0.692 µM)
MSSA, S. aureus IHMA 1592751, MSSA / VSSA
  MIC: 0.25 µg/mL (≈ 0.692 µM)
MSSA, S. aureus IHMA 1594297, MSSA / VSSA
  MIC: 0.25 µg/mL (≈ 0.692 µM)
MSSA, S. aureus IHMA 1597120, MSSA / VSSA
  MIC: 0.25 µg/mL (≈ 0.692 µM)
MSSA, S. aureus IHMA 1597125, MSSA / VSSA
  MIC: 0.25 µg/mL (≈ 0.692 µM)
MSSA, S. aureus IHMA 1599157, MSSA / VSSA
  MIC: 0.25 µg/mL (≈ 0.692 µM)
MSSA, S. aureus IHMA 1599506, MSSA / VSSA
  MIC: 0.25 µg/mL (≈ 0.692 µM)
MSSA, S. aureus IHMA 1602078, MSSA / VSSA
  MIC: 32 µg/mL (≈ 88.6 µM)
MSSA, S. aureus IHMA 1604586, MSSA / VSSA
  MIC: 0.25 µg/mL (≈ 0.692 µM)
MSSA, S. aureus IHMA 1604609, MSSA / VSSA
  MIC: 0.25 µg/mL (≈ 0.692 µM)
MSSA, S. aureus IHMA 1609919, MSSA / VSSA
  MIC: 0.25 µg/mL (≈ 0.692 µM)
MSSA, S. aureus IHMA 1622864, MSSA / VSSA
  MIC: 0.25 µg/mL (≈ 0.692 µM)
MSSA, S. aureus IHMA 1626392, MSSA / VSSA
  MIC: 0.25 µg/mL (≈ 0.692 µM)
MSSA, S. aureus IHMA 1713793, MSSA / VSSA
  MIC: 0.25 µg/mL (≈ 0.692 µM)

— paper PMC7561186, “Rational design of balanced dual-targeting antibiotics with limited resistance” (PLoS Biology, 2020)
